In US12358921B2, “Antiviral heterocyclic compounds” (priority 2022, dated 2025):

How the values were obtained:
[1] = test system: hMPV A2 TN/94-49; assay: HMPV antiviral assay Method 2 (LLC-MK2 cells with CP-100-356, ATP-Lite); assay type: cell-based; settings: hMPV A2 TN/94-49, LLC-MK2 cells, 4 μM CP-100-356, Method 2
Method in brief: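 LLC-MK2 cells infected in suspension with hMPV A2 TN/94-49 at MOI 0.16, in serum-free OptiMEM with final 2 μg/mL TPCK-trypsin and 2 μM CP-100-356 (P-gp inhibitor). Compounds tested in duplicate, top 200 nM, 2.5-fold, 10 points; 7 days at 37 °C. ATP-Lite cell health normalised to controls; EC50 by four-parameter fit.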

[2] = test system: HUMAN RSV-A (“LONG” STRAIN); assay: RSV-A assay (CPE, ATPlite) in Hep-2 cells; assay type: cell-based; settings: human respiratory syncytial virus, 120 h, MOI 0.1, 5-day incubation
Text: Methods for RSV-A Assay Hep-2 cells, (originally derived from tumors grown in irradiated-cortisonised weanling rats that had been injected with epidermoid carcinoma tissue from the larynx of a person, but later found to be indistinguishable from HeLa cells by PCR DNA analysis), were used for the culturing of genotype A, “Long” strain RSV. Flasks were inoculated with RSV and viral stocks were collected once cytopathic effect (CPE) was greater than 90%. Viral stocks in 25% sucrose media were snap frozen using liquid nitrogen to increase viral stability. Viral stock titers were quantified by tissue culture infectious dose 50% (TCID50) using 8,000 cells per well and 3-fold viral dilutions across a 96-well plate, cultured for 4 days. Viral stock titers were also quantified by a plaque forming unit assay, as described elsewhere.
Following extensive parameter testing, the final assay is run as follows: Hep-2 cells are seeded into the inner 60 wells of a 96-well plate at 8,000 cells per well in a volume of 50 μL using Growth Media (DMEM without phenol red, 1% L-Glut, 1% Penn/Strep, 1% nonessential amino acids, 10% heat-inactivated FBS). 2-fold serial dilutions of control and test compounds are added to the wells in duplicate in a total volume of 25 μL. Viral stock is then added to the wells at a multiplicity of infection (MOI) of 0.1 in a volume of 25 μL, bringing the total volume of each well to 100 μL. The MOI is calculated using the PFU/mL, or TCID50 if unavailable. Each 96-well plate has a control column of 6 wells with cells and virus but no compound (negative control, max CPE), a column with cells but no compound or virus (positive control, minimum CPE), and a column with no cells or virus or compound (background plate/reagent control). The control wells with cells but no virus are given an additional 25 μL of growth media containing an equal quantity of sucrose as those wells receiving the viral stock in order to keep consistent in media and volume conditions. The outer wells of the plate are filled with 125 μL of moat media (DMEM, 1% Penn/Strep) to act as a thermal and evaporative moat around the test wells. Following a 5-day incubation period, the plates are read using ATPlite (50 uL added per well), which quantifies the amount of ATP (a measure of cell health) present in each well. Assay plates are read using the Envision luminometer. […] EC50 ranges are as follows: A<0.2 μM; B>0.2 μM.

Row | Compound | EC50 [1] | EC50 [2]
1 | COc1cc(C(=O)NC[C@@](O)(c2ccncc2)c2cc3c(c(-c4cc(Cl)c(F)cc4F)n2)OC[C@]3(C)C(N)=O)cc2cn(C3CC3)nc12 [Example 152] | < 200 nM | < 200 nM
2 | COc1cc(C(=O)NC[C@@](O)(c2cccc(F)n2)c2cc3c(c(-c4cc(Cl)c(F)cc4F)n2)OC[C@]3(C)C(N)=O)cc2cn(C3CC3)nc12 [Example 203] | < 200 nM | < 200 nM
3 | [2H]C([2H])([2H])NC(=O)[C@@]1(C)COc2c1cc([C@@](O)(CNC(=O)c1cc(OC)c3nn(C4(F)CC4)cc3c1)c1ccccc1)nc2-c1cc(Cl)c(F)cc1F [Example 109] | < 200 nM | < 200 nM
4 | COc1cc(C(=O)NC[C@@](O)(c2cccc(F)n2)c2cc3c(c(-c4ccc(F)c(Cl)c4Cl)n2)OC[C@]3(C)C(N)=O)cc2cn(C3CC3)nc12 [Example 340] | < 200 nM | < 200 nM
5 | C[C@]1(C(N)=O)COc2c1cc([C@@](O)(CNC(=O)c1ccc3nc(C4(F)CC4)oc3c1)c1ccccc1)nc2-c1cc(Cl)c(F)cc1F [Example 219] | < 200 nM | < 200 nM
6 | COc1cc(C(=O)NC[C@@](O)(c2ccccc2)c2cc3c(c(-c4cc(F)c(F)cc4F)n2)OC[C@]3(C)C(N)=O)cc2oc(C3CC3)nc12 [Example 195] | < 200 nM | < 200 nM
7 | COc1cc(C(=O)NC[C@@](O)(c2ccccc2)c2cc3c(c(-c4cc(Cl)c(F)cc4F)n2)OC[C@]3(C)C(N)=O)cc2oc(N)nc12 [Example 237] | < 200 nM | < 200 nM
8 | COc1cc(C(=O)NC[C@@](O)(c2ccccc2)c2cc3c(c(-c4cccc(Cl)c4Cl)n2)OC[C@]3(C)C(N)=O)cc2oc(C)nc12 [Example 95] | < 200 nM | < 200 nM
9 | COc1cc(C(=O)NC[C@@](O)(c2cccc(Cl)n2)c2cc3c(c(-c4cc(Cl)c(F)cc4F)n2)OC[C@]3(C)C(N)=O)cc2cn(C3CC3)nc12 [Example 489] | < 200 nM | < 200 nM
10 | COc1cc(C(=O)NC[C@@](O)(c2ccccc2)c2cc3c(c(-c4cc(Cl)c(F)cc4F)n2)OC[C@]3(C)C(N)=O)cc2oc(C3(F)CC3)nc12 [Example 241] | < 200 nM | < 200 nM
11 | COc1cc(C(=O)NC[C@@](O)(c2cccc(F)c2)c2cc3c(c(-c4ccc5c(c4Cl)OC(F)(F)O5)n2)OC[C@]3(C)C(N)=O)cc2oc(C3CC3)nc12 [Example 286] | < 200 nM | < 200 nM
12 | COc1cc(C(=O)NC[C@@](O)(c2ccccc2)c2cc3c(c(-c4cccc5c4OCO5)n2)OC[C@]3(C)C(N)=O)cc2cn(C3(F)CC3)nc12 [Example 366] | > 200 nM | < 200 nM
13 | COc1cc(C(=O)NC[C@@](O)(c2ccccc2)c2cc3c(c(-c4cc(Cl)c(F)cc4F)n2)OC[C@]3(C)C(N)=O)cn2cc(C3CC3)nc12 [Example 115] | < 200 nM | < 200 nM
14 | COc1cc(C(=O)NC[C@@](O)(c2ccccc2)c2cc3c(c(-c4cc(Cl)c(F)cc4F)n2)OC[C@]3(C)C(N)=O)cc2cc(Cl)c(F)nc12 [Example 342] | > 200 nM | < 200 nM

Results, then the compound that gave them:

Row | EC50 [1] | EC50 [2] | Compound
15 | < 200 nM | < 200 nM | C[C@]1(C(N)=O)COc2c1cc([C@@](O)(CNC(=O)c1cc(OC3CC3)c3ncc(Cl)cc3c1)c1ccccc1)nc2-c1cc(F)c(F)cc1F [Example 197]
16 | < 200 nM | < 200 nM | COc1cc(C(=O)NC[C@@](O)(c2cccc(F)n2)c2cc3c(c(-c4cc(Cl)c(F)cc4F)n2)OC[C@]3(C)C(N)=O)cn2cc(C3CC3)nc12 [Example 154]
17 | > 200 nM | < 200 nM | COc1cc(-c2nc([C@@](O)(CNC(=O)c3cc(OC)c4nn(C5(F)CC5)cc4c3)c3ccccc3)cc3c2OC[C@]3(C)C(N)=O)c(F)cc1F [Example 364]
18 | > 200 nM | > 200 nM | COc1cc(C(=O)NC[C@@](O)(c2cccc(F)c2)c2cc3c(c(-c4cc(F)c(F)cc4C(N)=O)n2)OC[C@]3(C)C(N)=O)cc2cn(C3(F)CC3)nc12 [Example 405]
19 | < 200 nM | < 200 nM | Cc1nc2ccc(C(=O)NC[C@@](O)(c3ccccc3)c3cc4c(c(-c5cc(F)c(F)cc5F)n3)OC[C@]4(C)C(N)=O)cc2o1 [Example 192]
20 | < 200 nM | < 200 nM | COc1cc(C(=O)NCC(O)(c2cc(F)nc(F)c2)c2cc3c(c(-c4cccc(Cl)c4Cl)n2)OC[C@]3(C)C(N)=O)cc2cn(C3CC3)nc12 (some centres unmarked) [Example 499]
21 | < 200 nM | < 200 nM | COc1cc(C(=O)NC[C@@](O)(c2cccc(F)c2)c2cc3c(c(-c4ccc5c(c4Cl)OC(F)(F)O5)n2)OC[C@]3(C)C(N)=O)cc2oc(C)nc12 [Example 285]
22 | > 200 nM | < 200 nM | C[C@]1(C(N)=O)COc2c1cc([C@@](O)(CNC(=O)c1ccc3nc(C4CC4)oc3c1)c1cccc(F)c1)nc2-c1cc(C(F)(F)F)c(F)cc1F [Example 308]
23 | < 200 nM | < 200 nM | COc1cc(C(=O)NC[C@@](O)(c2ccccc2)c2cc3c(c(-c4cc(C(F)F)c(F)cc4F)n2)OC[C@]3(C)C(N)=O)cc2cn(C(F)F)nc12 [Example 300]
24 | > 200 nM | < 200 nM | COc1cc(C(=O)NCC(O)(c2cc3c(c(-c4cc(Cl)c(F)cc4F)n2)OC[C@]3(C)C(N)=O)c2ccc(Cl)s2)cc2cn(C3CC3)nc12 (some centres unmarked) [Example 472]
25 | < 200 nM | < 200 nM | COc1cc(C(=O)NCC(O)(c2cc(F)nc(F)c2)c2cc3c(c(-c4cccc(Cl)c4Cl)n2)OC[C@]3(C)C(N)=O)cc2cn(C(F)F)nc12 (some centres unmarked) [Example 500]
26 | > 200 nM | > 200 nM | COc1cc(C(=O)NC[C@](O)(c2cccc(F)c2)c2cc3c(c(-c4cc(F)c(F)cc4C(N)=O)n2)OC[C@]3(C)C(N)=O)cc2cn(C3(F)CC3)nc12 [Example 406]
27 | < 200 nM | < 200 nM | COc1cc(C(=O)NC[C@@](O)(c2cnccn2)c2cc3c(c(-c4cc(Cl)c(F)cc4F)n2)OC[C@]3(C)C(N)=O)cc2cn(C3CC3)nc12 [Example 487]
28 | < 200 nM | < 200 nM | COc1cc(C(=O)NC[C@@](O)(c2cccc(F)n2)c2cc3c(c(-c4cc(Cl)c(F)cc4F)n2)OC[C@]3(C)C(N)=O)cc2cn(C(F)F)nc12 [Example 205]
29 | < 200 nM | < 200 nM | COc1cc(C(=O)NC[C@@](O)(c2ccccc2)c2cc3c(c(-c4cc(Cl)c(F)cc4F)n2)OC[C@]3(C)C(N)=O)cc2cc(Cl)nnc12 [Example 113]
30 | < 200 nM | < 200 nM | C[C@]1(C(N)=O)COc2c1cc([C@@](O)(CNC(=O)c1ccc3nc(C4CC4)oc3c1)c1ccccc1)nc2-c1cccc(Cl)c1Cl [Example 97]
31 | > 200 nM | < 200 nM | COc1cc(C(=O)NC[C@@](O)(c2cccc(S(N)(=O)=O)c2)c2cc3c(c(-c4cc(Cl)c(F)cc4F)n2)OC[C@]3(C)C(N)=O)cc2cn(C3CC3)nc12 [Example 486]
32 | < 200 nM | < 200 nM | COc1cc([C@](O)(CNC(=O)c2cc(OC)c3nn(C4CC4)cc3c2)c2cc3c(c(-c4cccc(Cl)c4Cl)n2)OC[C@]3(C)C(N)=O)cc(OC)n1 [Example 497]
33 | < 200 nM | < 200 nM | COc1cc(C(=O)NC[C@@](O)(c2ccccc2)c2cc3c(c(-c4cccc(Cl)c4Cl)n2)OC[C@]3(C)C(N)=O)cc2oc(C3CC3)nc12 [Example 96]
34 | < 200 nM | < 200 nM | COc1cc(C(=O)NC[C@@](O)(c2cccc(F)c2)c2cc3c(c(-c4cc(C(F)(F)F)c(F)cc4F)n2)OC[C@]3(C)C(N)=O)cc2cn(C(F)F)nc12 [Example 301]
